Measured values: patent US6838565B2, “Substituted benzoic acid amides, their preparation and their use as pharmaceutical compositions” (Boehringer Ingelheim Pharma GmbH & Co. KG, priority 2002, dated 2005)
Structures can show the parent of a compound that is named as a salt.

Target: T1, human factor Xa (Homo sapiens, UniProt P00742)
T1 construct: released from the colourless chromogenic substrate by human factor Xa; purchased Roche
Assay: Inhibition of factor Xa, enzyme-kinetic measurement with chromogenic substrate (Chromozym X)
Format: biochemical
Conditions: pNA release from Chromozym X 200 μMol/l, 405 nm, 37° C., pH 8.0, factor Xa 0.175 U/ml
Description: Method: Enzyme-kinetic measurement with chromogenic substrate. The quantity of p-nitroaniline (pNA) released from the colourless chromogenic substrate by human factor Xa is determined photometrically at 405 nm. It is proportional to the activity of the enzyme used. The inhibition of the enzyme activity by the test substance (in relation to the solvent control) is determined at various concentrations of test substance and from this the IC50 is calculated, as the concentration which inhibits the factor Xa used by 50%.
• Tris(hydroxymethyl)-aminomethane buffer (100 mmol) and sodium chloride (150 mmol), pH 8.0 • Factor Xa (Roche), spec. activity: 10 U/0.5 ml, final concentration: 0.175 U/ml for each reaction mixture • Substrate Chromozym X (Roche), final concentration: 200 μMol/l for each reaction mixture • Test substance: final concentration 100, 30, 10, 3, 1, 0.3, 0.1, 0.03, 0.01, 0.003, 0.001 μMol/l Procedure
10 μl of a 23.5-times concentrated starting solution of the test substance or solvent (control), 175 μl of tris(hydroxymethyl)-aminomethane buffer and 25 μl of a 1.65 U/ml Factor Xa working solution are incubated for 10 minutes at 37° C. After the addition of 25 μl of Chromozym X working solution (1.88 μmol/l) the sample is measured in a photometer (SpectraMax 250) at 405 nm for 150 seconds at 37° C.
• 1. […]

T1 sequence (P00742 235-488 limits assumed): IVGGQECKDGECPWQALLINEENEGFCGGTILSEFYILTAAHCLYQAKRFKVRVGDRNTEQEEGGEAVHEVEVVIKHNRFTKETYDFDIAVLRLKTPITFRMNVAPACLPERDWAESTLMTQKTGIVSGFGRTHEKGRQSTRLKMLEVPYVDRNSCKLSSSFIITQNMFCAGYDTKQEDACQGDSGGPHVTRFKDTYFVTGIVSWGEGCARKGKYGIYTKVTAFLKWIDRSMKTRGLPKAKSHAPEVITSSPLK
T1 sequence (P00742 41-179 partner limits assumed): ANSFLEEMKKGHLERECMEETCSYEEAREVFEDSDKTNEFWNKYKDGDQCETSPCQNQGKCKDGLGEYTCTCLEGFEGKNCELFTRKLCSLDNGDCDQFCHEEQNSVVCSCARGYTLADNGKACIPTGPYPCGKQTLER

| IC50 | SMILES |
| --- | --- |
| 0.008 µM | Cc1cc(C(=O)NC(Cc2nnn[nH]2)c2cccc(C(=N)N)c2)ccc1C(=O)N1CC=CC1 (centres unmarked) [(1), N-[1-(3-amidino-phenyl)-2-(1H-tetrazol-5-yl)-ethyl]-4-(2,5-dihydro-pyrrol-1-yl-carbonyl)-3-methyl-benzamide-hydrochloride] |
| 0.026 µM | Cc1cc(C(=O)NC(Cc2nnn[nH]2)c2cccc(C(=N)N)c2)ccc1C(=O)N1CCCC1 (centres unmarked) [(2), N-[1-(3-amidino-phenyl)-2-(1H-tetrazol-5-yl)-ethyl]-3-methyl-4-(pyrrolidin-1-carbonyl)-benzamide-hydrochloride] |
